Patent US20230263822A1, “MODULATION OF FACTOR 11 EXPRESSION” (Ionis Pharmaceuticals, Inc., priority 2008, published 2023)
Strand notation (5' to 3'): a small letter for the sugar, then the base; units joined by * are phosphorothioate-linked, units joined directly phosphodiester-linked; [ ] holds rarer units or linkages, { } end groups; capitals alone tell only the bases. e = 2'-O-(2-methoxyethyl) (MOE); [5mC] = 5-methylcytosine; d = 2'-deoxy (DNA)

Tested on: human Factor 11 mRNA
Assay: Antisense inhibition of human Factor 11 in HepG2 cells, lipofectin, 75 nM (Example 1)
Assay type: cell-based
Settings: 75 nM antisense oligonucleotide, ~24 h, relative to untreated control cells
Method: Antisense oligonucleotides targeted to a Factor 11 nucleic acid were tested for their effects on Factor 11 mRNA in vitro. Cultured HepG2 cells at a density of 10,000 cells per well were transfected using lipofectin reagent with 75 nM antisense oligonucleotide. After a treatment period of approximately 24 hours, RNA was isolated from the cells and Factor 11 mRNA levels were measured by quantitative real time PCR. Factor 11 mRNA levels were adjusted according to total RNA content, as measured by RIBOGREEN. Results are presented as percent inhibition of Factor 11, relative to untreated control cells.
The chimeric antisense oligonucleotides in Tables 1 and 2 were designed as 5-10-5 MOE gapmers. The gapmers are 20 nucleotides in length, wherein the central gap segment is comprised of 10 2′-deoxynucleotides and is flanked on both sides (in the 5′ and 3′ directions) by wings comprising 5 nucleotides each. Each nucleotide in the 5′ wing segment and each nucleotide in the 3′ wing segment has a 2′-MOE modification. The internucleoside linkages throughout each gapmer are phosphorothioate (P=S) linkages. All cytidine residues throughout each gapmer are 5-methylcytidines. “Target start site” indicates the 5′-most nucleotide to which the gapmer is targeted. “Target stop site” indicates the 3′-most nucleotide to which the gapmer is targeted. Each gapmer listed in Table 1 is targeted to SEQ TD NO: 1 (GENBANK Accession No. NM_000128.3) and each gapmer listed in Table 2 is targeted to SEQ TD NO: 2 (GENBANK Accession No. NT_022792.17, truncated from 19598000 to 19624000).

[1] = gapmers targeted to SEQ ID NO: 1
[2] = gapmers targeted to SEQ ID NO: 2

Substance: 413473 (antisense eA*eG*e[5mC]*e[5mC]*eA*dG*dA*dT*dT*dA*dG*dA*dA*dA*dG*eT*eG*e[5mC]*eA*e[5mC]) [compound 413473]
- % inhibition [1]: 80%

Substance: 413537 (antisense eA*eG*eA*eA*eA*dT*dA*dT*d[5mC]*d[5mC]*d[5mC]*d[5mC]*dA*dG*dA*e[5mC]*eA*eG*eA*eG) [compound 413537]
- % inhibition [2]: 16%

Substance: 413470 (antisense eG*eT*eT*eA*eT*dA*dG*dT*dT*dT*dA*dT*dG*d[5mC]*d[5mC]*e[5mC]*eT*eT*e[5mC]*eA) [compound 413470]
- % inhibition [1]: 72%

Substance: 413520 (antisense eG*e[5mC]*eT*e[5mC]*eT*dG*dA*dG*dA*dG*dT*dT*d[5mC]*d[5mC]*dA*eA*eT*eT*e[5mC]*eA) [compound 413520]
- % inhibition [2]: 52%

Substance: 413524 (antisense eG*eA*e[5mC]*eA*eT*dT*dA*dT*dA*d[5mC]*dT*d[5mC]*dA*d[5mC]*d[5mC]*eA*eT*eT*eA*eT) [compound 413524]
- % inhibition [2]: 7%

Substance: 412214 (antisense eT*e[5mC]*e[5mC]*eT*eG*dG*dG*dA*dA*dA*dA*dG*dA*dA*dG*eG*eT*eA*eA*eA) [compound 412214]
- % inhibition [1]: 58%

Substance: 413487 (antisense eA*eA*e[5mC]*eG*eA*dT*d[5mC]*d[5mC]*dT*dG*dG*dG*d[5mC]*dT*dT*eG*eA*eT*eT*eT) [compound 413487]
- % inhibition [1]: 57%

Substance: 412211 (antisense eG*eA*eT*eT*eA*dG*dA*dA*dA*dG*dT*dG*d[5mC]*dA*d[5mC]*eA*eG*eG*eA*eT) [compound 412211]
- % inhibition [1]: 64%

Substance: 412245 (antisense eG*eT*e[5mC]*eA*e[5mC]*dT*dA*dA*dG*dG*dG*dT*dA*dT*d[5mC]*eT*eT*eG*eG*e[5mC]) [compound 412245]
- % inhibition [1]: 75%

Substance: 413472 (antisense eT*eG*eG*eG*eT*dG*dT*dG*d[5mC]*dT*dT*d[5mC]*dA*dG*dT*eA*eG*eA*e[5mC]*eA) [compound 413472]
- % inhibition [1]: 99%

Substance: 412232 (antisense eG*eG*e[5mC]*e[5mC]*eA*d[5mC]*dT*d[5mC]*dA*d[5mC]*d[5mC]*dA*d[5mC]*dG*dA*eA*e[5mC]*eA*eG*eA) [compound 412232]
- % inhibition [1]: 80%

Substance: 412191 (antisense eT*eT*eA*eA*eA*dA*dT*d[5mC]*dT*dT*dA*dG*dT*dA*dT*eG*eT*e[5mC]*eA*eG) [compound 412191]
- % inhibition [1]: 14%

Substance: 412231 (antisense eT*e[5mC]*e[5mC]*eT*eG*dG*dG*d[5mC]*dT*dT*dG*dA*dT*dT*dT*eT*eG*eG*eT*eG) [compound 412231]
- % inhibition [1]: 74%

Substance: 413465 (antisense e[5mC]*eT*eT*eA*eT*dT*dT*dG*dG*dT*dG*dT*dG*dA*dG*e[5mC]*eA*eT*eT*eG) [compound 413465]
- % inhibition [1]: 80%

Substance: 413502 (antisense e[5mC]*eT*eG*e[5mC]*eT*dT*dT*dA*dT*dG*dA*dA*dA*dA*dA*e[5mC]*e[5mC]*eA*eA*e[5mC]) [compound 413502]
- % inhibition [2]: 22%

Substance: 412199 (antisense eT*eT*e[5mC]*eA*e[5mC]*dT*d[5mC]*dT*dT*dG*dG*d[5mC]*dA*dG*dT*eG*eT*eT*eT*e[5mC]) [compound 412199]
- % inhibition [1]: 66%

Substance: 412235 (antisense eA*eT*eA*eT*e[5mC]*d[5mC]*dA*d[5mC]*dT*dG*dG*dT*dT*dT*d[5mC]*e[5mC]*eA*eA*eT*eG) [compound 412235]
- % inhibition [1]: 57%

Substance: 412244 (antisense eG*eA*eA*eG*eG*d[5mC]*dA*dG*dG*d[5mC]*dA*dT*dA*dT*dG*eG*eG*eT*e[5mC]*eG) [compound 412244]
- % inhibition [1]: 53%

Substance: 413513 (antisense eT*eT*e[5mC]*eT*eG*dA*dA*dT*dA*dT*dA*d[5mC]*dA*dA*dA*eT*eT*eA*eA*eT) [compound 413513]
- % inhibition [2]: 27%

Substance: 412210 (antisense eT*eG*e[5mC]*eA*e[5mC]*dA*dG*dG*dA*dT*dT*dT*d[5mC]*dA*dG*eT*eG*eA*eA*eA) [compound 412210]
- % inhibition [1]: 73%

Substance: 413534 (antisense eT*eT*eT*eT*e[5mC]*d[5mC]*dA*dG*dA*dA*dG*dA*dG*dA*d[5mC]*eT*e[5mC]*eT*eT*e[5mC]) [compound 413534]
- % inhibition [2]: 31%

Substance: 413506 (antisense eA*eT*eG*eG*eA*dA*dT*dT*dG*dT*dG*d[5mC]*dT*dT*dA*eT*eG*eA*eG*eT) [compound 413506]
- % inhibition [2]: 57%

Substance: 413508 (antisense eG*eT*eT*eG*eG*dT*dA*dA*dA*dA*dT*dG*d[5mC]*dA*dA*e[5mC]*e[5mC]*eA*eA*eA) [compound 413508]
- % inhibition [2]: 64%

Substance: 413532 (antisense eA*eG*eG*eG*eA*dA*dT*dA*dA*d[5mC]*dA*dT*dG*dA*dA*eG*eG*e[5mC]*e[5mC]*e[5mC]) [compound 413532]
- % inhibition [2]: 32%

Substance: 413497 (antisense eG*eA*eT*eT*e[5mC]*d[5mC]*dT*dG*d[5mC]*dA*dA*dA*dA*dT*dG*eG*eT*eG*eA*eA) [compound 413497]
- % inhibition [1]: 39%

Substance: 412192 (antisense e[5mC]*eA*eG*e[5mC]*eA*dT*dA*dT*dT*dT*dG*dT*dG*dA*dA*eA*eG*eT*e[5mC]*eG) [compound 412192]
- % inhibition [1]: 44%

Substance: 412257 (antisense e[5mC]*eT*eG*e[5mC]*eA*dA*dA*dA*dT*dG*dG*dT*dG*dA*dA*eG*eA*e[5mC]*eT*eG) [compound 412257]
- % inhibition [1]: 57%

Substance: 413478 (antisense eA*eG*eA*eA*eT*dG*dG*d[5mC]*dA*dG*dA*dA*d[5mC]*dA*d[5mC]*eT*eG*eG*eG*eA) [compound 413478]
- % inhibition [1]: 53%

Substance: 412247 (antisense eT*eA*eG*e[5mC]*e[5mC]*dG*dG*d[5mC]*dA*d[5mC]*dA*dG*dA*dT*d[5mC]*eA*eT*e[5mC]*eT*eT) [compound 412247]
- % inhibition [1]: 75%

Substance: 412198 (antisense eT*eT*e[5mC]*eA*eG*dG*dA*d[5mC]*dA*d[5mC]*dA*dA*dG*dT*dA*eA*eA*e[5mC]*e[5mC]*eA) [compound 412198]
- % inhibition [1]: 21%

Substance: 412263 (antisense eT*eG*eA*eA*eA*dG*d[5mC]*dT*dA*dT*dG*dT*dG*dG*dT*eG*eA*e[5mC]*eA*eA) [compound 412263]
- % inhibition [1]: 33%

Substance: 412205 (antisense eG*eT*eT*eT*eA*dT*dG*d[5mC]*d[5mC]*d[5mC]*dT*dT*d[5mC]*dA*dT*eG*eT*e[5mC]*eT*eA) [compound 412205]
- % inhibition [1]: 69%

Substance: 412255 (antisense eG*e[5mC]*e[5mC]*eA*e[5mC]*dT*dA*d[5mC]*dT*dT*dG*dG*dT*dT*dA*eT*eT*eT*eT*e[5mC]) [compound 412255]
- % inhibition [1]: 38%

Substance: 413510 (antisense eT*eG*e[5mC]*eA*eA*dG*d[5mC]*dT*dG*dG*dA*dA*dA*dT*dA*eA*eA*eA*eG*e[5mC]) [compound 413510]
- % inhibition [2]: 17%

Substance: 412243 (antisense eT*eT*e[5mC]*e[5mC]*eA*dG*dT*dT*dT*d[5mC]*dA*dA*d[5mC]*dA*dA*eG*eG*e[5mC]*eA*eA) [compound 412243]
- % inhibition [1]: 70%

Substance: 412250 (antisense eT*eG*eG*e[5mC]*eA*d[5mC]*dA*dG*dT*dG*dA*dA*d[5mC]*dT*d[5mC]*eA*eA*e[5mC]*eA*e[5mC]) [compound 412250]
- % inhibition [1]: 63%

Substance: 413517 (antisense eA*eA*eA*eG*e[5mC]*dT*dA*dT*dT*dG*dG*dA*dG*dA*d[5mC]*eT*e[5mC]*eA*eG*eA) [compound 413517]
- % inhibition [2]: 51%
